The values below come from paper PMC6044897 (ACS Omega, 2017).

Assay [1] addresses T1, M2R (Homo sapiens, UniProt P08172).
T1 sequence (P08172 1-466): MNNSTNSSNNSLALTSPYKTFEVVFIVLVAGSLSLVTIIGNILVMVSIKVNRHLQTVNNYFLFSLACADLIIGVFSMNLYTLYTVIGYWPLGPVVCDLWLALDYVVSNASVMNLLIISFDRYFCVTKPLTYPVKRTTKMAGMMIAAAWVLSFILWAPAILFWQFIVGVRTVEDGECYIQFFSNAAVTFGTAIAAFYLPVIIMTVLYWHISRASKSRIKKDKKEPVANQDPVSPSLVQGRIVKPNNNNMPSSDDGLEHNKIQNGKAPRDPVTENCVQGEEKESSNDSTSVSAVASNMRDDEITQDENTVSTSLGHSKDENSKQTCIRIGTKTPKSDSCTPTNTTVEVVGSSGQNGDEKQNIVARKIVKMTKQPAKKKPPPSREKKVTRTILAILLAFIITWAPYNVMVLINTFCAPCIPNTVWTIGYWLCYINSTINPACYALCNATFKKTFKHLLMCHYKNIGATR
Kind of assay: Equilibrium competition binding with [^3H]64 at CHO-hM2R cell homogenates.

Assay [2] has as its target M1R–M5R. To be noted: read-out: Ki (M1R–M4R); range over M1R–M4R; cited from earlier work.

`CCCCCCOc1nsnc1C1=CCCN(C)C1` [Compound 1, xanomeline]: in assay [1], the “displacement of [^3H]64 from the M2R-specific binding sites” value is on record as “completely displaced”.
Take `CC(C)[N+](C)(CCOC(=O)C1c2ccccc2Oc2ccccc21)C(C)C` [Compound 4, propantheline]: the Ki in assay [2] was 0.057 to 0.33 nM.

One may read the Ki as a measure of affinity in units of concentration, obtained from inhibition or displacement.
